Source: patent US20260098026A1, “M4 ACTIVATORS/MODULATORS AND USES THEREOF” (Cerevel Therapeutics, LLC, priority 2022, published 2026)

What was measured:
[1] = biological target: T1, M3 muscarinic acetylcholine receptor (mAChR) (Homo sapiens, UniProt P20309); test: FLIPR calcium assay (Fluo 8), M3-overexpressing CHO-K1 cells; format: cell-based
T1 construct: expressed in transfected cells; host or cells: CHO-K1
In short: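 CHO-K1 cells overexpressing each human receptor seeded at 15,000 per well, grown overnight at 37° C., 5% CO2, then loaded with Fluo-8 for 30 min. Compounds in HBSS added and calcium response read on FLIPR; EC50 and Emax calculated per subtype.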

[2] = biological target: T2, M4 mAChR (Homo sapiens, UniProt P08173); test: cAMP TR-FRET assay with forskolin, M4-overexpressing CHO-K1 cells; format: cell-based
T2 construct: expressed in transfected cells; host or cells: CHO-K1
T2 sequence (P08173 1-479): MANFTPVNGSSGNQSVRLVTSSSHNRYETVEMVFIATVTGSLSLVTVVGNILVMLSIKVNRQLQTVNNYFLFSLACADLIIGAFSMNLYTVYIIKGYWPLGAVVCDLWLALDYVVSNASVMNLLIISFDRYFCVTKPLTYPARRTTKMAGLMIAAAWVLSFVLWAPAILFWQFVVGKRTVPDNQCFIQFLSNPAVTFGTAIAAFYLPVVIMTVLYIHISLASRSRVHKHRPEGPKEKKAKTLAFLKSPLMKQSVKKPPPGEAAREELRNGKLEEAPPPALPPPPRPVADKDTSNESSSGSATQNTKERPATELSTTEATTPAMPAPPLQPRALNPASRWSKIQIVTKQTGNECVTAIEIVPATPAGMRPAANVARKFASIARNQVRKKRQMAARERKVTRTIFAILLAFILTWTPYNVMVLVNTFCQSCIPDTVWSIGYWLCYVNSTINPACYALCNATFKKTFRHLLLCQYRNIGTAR
In short: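 CHO-K1 cells overexpressing the receptor were stimulated with forskolin to raise cAMP, so that Gi-mediated agonist decreases could be measured. cAMP was quantified by TR-FRET competition between cellular cAMP and labelled donor for anti-cAMP antibody, giving potency and efficacy.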

T1 sequence (P20309 whole entry): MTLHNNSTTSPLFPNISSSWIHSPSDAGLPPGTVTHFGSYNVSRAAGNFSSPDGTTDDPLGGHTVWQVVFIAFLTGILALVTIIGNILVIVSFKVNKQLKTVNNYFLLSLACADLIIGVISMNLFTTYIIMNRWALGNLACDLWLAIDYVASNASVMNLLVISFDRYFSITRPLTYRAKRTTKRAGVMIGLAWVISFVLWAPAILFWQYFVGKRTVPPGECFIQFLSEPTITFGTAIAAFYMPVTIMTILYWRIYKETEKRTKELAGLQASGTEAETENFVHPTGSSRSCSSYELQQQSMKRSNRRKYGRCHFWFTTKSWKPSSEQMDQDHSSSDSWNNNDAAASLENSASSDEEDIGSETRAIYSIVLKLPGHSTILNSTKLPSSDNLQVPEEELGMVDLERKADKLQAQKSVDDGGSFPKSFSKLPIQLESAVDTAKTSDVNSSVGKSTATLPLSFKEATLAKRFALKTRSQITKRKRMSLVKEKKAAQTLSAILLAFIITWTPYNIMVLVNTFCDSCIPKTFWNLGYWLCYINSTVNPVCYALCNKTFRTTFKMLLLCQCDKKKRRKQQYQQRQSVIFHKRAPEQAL

Row | Structure (SMILES) | EC50 ([1]; FLIPR calcium) [µM] | Emax ([2]; cAMP TR-FRET with forskolin) [%] | EC50 ([1]; FLIPR) [µM] | Emax ([2]; cAMP assay) [%]
1 | CCOC(=O)N1CC2(CC[C@@H](N3CCN(c4cc(F)cnc4-c4cccc(C(=O)NC)c4)CC3)C2)C1 [Compound A97] | > 10 | 80 to 100 |  | 
2 | CCOC(=O)N1CC2(CC[C@@H](N3CCN(c4cc(F)cnc4-c4cccc(C)n4)CC3)C2)C1 [Compound A135] | > 10 | 19 to 49.9 |  | 
3 | CCOC(=O)N1CC2(CC[C@@H](N3CCN(c4cc(F)cnc4-c4ccc(Cl)cn4)CC3)C2)C1 [Compound A259] |  |  | > 10 | 80 to 100
4 | CCOC(=O)N1CC2(CC[C@@H](N3CCN(c4cc(Cl)cnc4-c4ccc(C)nn4)CC3)C2)C1 [Compound A251] |  |  | > 10 | 80 to 100
5 | CCOC(=O)N1CC2(CC[C@@H](N3CCN(c4cc(F)cnc4-c4cnn(COC)c4)CC3)C2)C1 [Compound A168] |  |  | > 10 | 80 to 100
6 | CCOC(=O)N1CC2(CC[C@@H](N3CCN(c4cc(F)cnc4-c4cnc5c(ccn5C)c4)CC3)C2)C1 [Compound A99] | > 10 | 80 to 100 |  | 
7 | CCOC(=O)N1CC2(CC[C@H](N3CCC(c4cc(F)cnc4-c4ccc(F)cn4)CC3)C2)C1 [Compound A293] |  |  | > 10 | 80 to 100
8 | CCOC(=O)N1CC2(CC[C@@H](N3CCN(c4cc(Cl)cnc4-c4ccn(C)n4)CC3)C2)C1 [Compound A208] |  |  | > 10 | 50 to 79.9
9 | CCOC(=O)N1CC2(CC[C@@H](N3CCN(c4cc(F)cnc4-c4ccc(OC)cc4C#N)CC3)C2)C1 [Compound A152] |  |  | > 10 | 80 to 100
10 | CCOC(=O)N1CC2(CC[C@@H](N3CCN(c4cc(F)cnc4-c4ccc(CCO)cc4)CC3)C2)C1 [Compound A169] |  |  | > 10 | 80 to 100
11 | CCOC(=O)N1CC2(CC[C@@H](N3CCN(c4cc(F)cnc4-c4cn(C)nc4C)CC3)C2)C1 [Compound A157] |  |  | > 10 | 80 to 100
12 | CCOC(=O)N1CC2(CC[C@@H](N3CCN(c4cc(F)cnc4-c4ccc(C#N)c(OC)c4)CC3)C2)C1 [Compound A43] | > 10 | 80 to 100 |  | 
13 | CCOC(=O)N1CC2(CC[C@@H](N3CCN(c4cc(F)cnc4-c4ccc(=O)n(CC)c4)CC3)C2)C1 [Compound A155] |  |  | > 10 | 80 to 100
14 | C=CCn1cc(-c2ncc(F)cc2N2CCN([C@@H]3CCC4(C3)CN(C(=O)OCC)C4)CC2)cn1 [Compound A84] | > 10 | 80 to 100 |  | 
15 | CCOC(=O)N1CC2(CC[C@@H](N3CCN(c4cc(F)cnc4-n4cc(C)cn4)CC3)C2)C1 [Compound A10, ethyl (6R)-6-[4-[5-fluoro-2-(4-methylpyrazol-1-yl)-3-pyridyl]piperazin-1-yl]-2-azaspiro[3.4]octane-2-carboxylate] | > 10 | 80 to 100 |  | 
16 | CCOC(=O)N1CC2(CC[C@@H](N3CCN(c4cc(F)cnc4-c4ccc(OC)c(CO)c4)CC3)C2)C1 [Compound A72] | > 10 | 50 to 79.9 |  | 
17 | CCOC(=O)N1CC2(CC[C@@H](N3CCN(c4cc(F)cnc4-c4c(O)cccc4F)CC3)C2)C1 [Compound A167] |  |  | > 10 | 80 to 100
18 | CCOC(=O)N1CC2(CC[C@@H](N3CCN(c4cc(F)cnc4-c4ccc5c(c4)ncn5C)CC3)C2)C1 [Compound A131] | > 10 | 80 to 100 |  | 
19 | CCOC(=O)N1CC2(CC[C@@H](N3CCN(c4cc(F)cnc4-c4c(C)n[nH]c4C)CC3)C2)C1 [Compound A81] | > 10 | 80 to 100 |  | 

Row | Structure (SMILES) | EC50 ([1]; FLIPR calcium) [µM] | Emax ([2]; cAMP TR-FRET with forskolin) [%] | EC50 ([1]; FLIPR) [µM] | Emax ([2]; cAMP assay) [%]
20 | CCOC(=O)N1CC2(CC[C@@H](N3CCN(c4cc(F)cnc4-n4cnc(C)c4)CC3)C2)C1 [Compound A290] |  |  | > 10 | 80 to 100
21 | CCOC(=O)N1CC2(CC[C@@H](N3CCN(c4cc(F)cnc4-c4cccc5nn(C)cc45)CC3)C2)C1 [Compound A60] | > 10 | 80 to 100 |  | 
22 | CCOC(=O)N1CC2(CC[C@@H](N3CCN(c4cc(F)cnc4-c4cccc(O)c4F)CC3)C2)C1 [Compound A142] | > 10 | 80 to 100 |  | 
23 | CCOC(=O)N1CC2(CC[C@@H](N3CCN(c4cc(F)cnc4-c4cccnc4F)CC3)C2)C1 [Compound A179] |  |  | > 10 | 80 to 100
24 | CCOC(=O)N1CC2(CC[C@@H](N3CCN(c4cc(F)cnc4-c4ccn(C(C)(C)C)n4)CC3)C2)C1 [Compound A200] |  |  | > 10 | 19 to 49.9
25 | CCOC(=O)N1CC2(CC[C@@H](N3CCN(c4cc(Cl)cnc4C4CCOCC4)CC3)C2)C1 (single isomer, unassigned) [Compound A15] | > 10 | 80 to 100 |  | 
26 | CCOC(=O)N1CC2(CC[C@@H](N3CCN(c4cc(F)cnc4-c4ccc(C)nc4OC)CC3)C2)C1 [Compound A116] | > 10 | 80 to 100 |  | 
27 | CCOC(=O)N1CC2(CC[C@@H](N3CCN(c4cc(F)cnc4-c4cccc5c[nH]nc45)CC3)C2)C1 [Compound A61] | > 10 | 80 to 100 |  | 
28 | CCOC(=O)N1CC2(CC[C@@H](N3CCN(c4cc(F)cnc4-c4ccc5cnn(C)c5c4)CC3)C2)C1 [Compound A54] | > 10 | 80 to 100 |  | 
29 | CCOC(=O)N1CC2(CC[C@@H](N3CCN(c4cc(F)cnc4-c4cccnc4)CC3)C2)C1 [Compound A37] | > 10 | 80 to 100 |  | 
30 | CCOC(=O)N1CC2(CC[C@@H](N3CCN(c4cc(F)cnc4-c4cnn(C(C)(C)C)c4)CC3)C2)C1 [Compound A191] |  |  | > 10 | 50 to 79.9
31 | CCOC(=O)N1CC2(CC[C@@H](N3CCN(c4cc(F)cnc4NC4CCOCC4)CC3)C2)C1 [Compound A9, ethyl (6R)-6-[4-[5-fluoro-2-(tetrahydropyran-4-ylamino)-3-pyridyl]piperazin-1-yl]-2-azaspiro[3.4]octane-2-carboxylate] | > 10 | 80 to 100 |  | 
32 | CCOC(=O)N1CC2(CC[C@@H](N3CCN(c4cc(F)cnc4-c4ccc(C)cn4)CC3)C2)C1 [Compound A228] |  |  | > 10 | 80 to 100
33 | CCOC(=O)N1CC2(CC[C@@H](N3CCN(c4cc(F)cnc4-c4cc(C)nn4C)CC3)C2)C1 [Compound A144] | > 10 | 80 to 100 |  | 
34 | CCOC(=O)N1CC2(CC[C@@H](N3CCN(c4cc(F)cnc4-c4ccc(C)c(CO)c4)CC3)C2)C1 [Compound A150] |  |  | > 10 | 50 to 79.9
35 | CCOC(=O)N1CC2(CC[C@@H](N3CCN(c4cc(F)cnc4C4=CCOCC4)CC3)C2)C1 [Compound A193] |  |  | > 10 | 80 to 100
36 | CCOC(=O)N1CC2(CC[C@@H](N3CCN(c4cc(F)cnc4-c4cnn(CCF)c4)CC3)C2)C1 [Compound A171] |  |  | > 10 | 80 to 100
37 | CCOC(=O)N1CC2(CC[C@@H](N3CCN(c4cc(F)cnc4-c4ccn(C)c(=O)c4)CC3)C2)C1 [Compound A102] | > 10 | 80 to 100 |  | 
38 | CCOC(=O)N1CC2(CC[C@@H](N3CCN(c4cc(F)cnc4-c4ncccc4F)CC3)C2)C1 [Compound A283] |  |  | > 10 | 80 to 100
